The text below walks through data of US20260028365A1 (BIOGEN MA INC., priority 2022, published 2026).

Assay [1] addresses JH2 domain of human Tyk2 (Homo sapiens (Human), UniProt P29597). Nature of the assay: JH2 Biochemical Assay (TR-FRET probe displacement). The class given is binding. (TR-FRET usually uses a lanthanide donor and a delayed reading to cut background.)
In assay [2] the target is Tyk2 (Homo sapiens (Human), UniProt P29597). Nature of the assay: pSTAT4 Cell Assay (MSD, NK92 cells). Format: cell-based.
The mark [3] stands for this setting: TR-FRET probe displacement, JH2 domain of human Tyk2.
Where [4] appears, read: TR-FRET probe displacement, JH2 domain.
[5] abbreviates: JH2 domain of human Tyk2, TR-FRET probe displacement.

Each structure is given as a SMILES string. Where two headings read alike, the source gives them in different places.

The IC50 is the point on the concentration scale where inhibition reaches its midpoint. A high value points to a need for much substance.

Chain of JH2 domain of human Tyk2 (P29597 575-876): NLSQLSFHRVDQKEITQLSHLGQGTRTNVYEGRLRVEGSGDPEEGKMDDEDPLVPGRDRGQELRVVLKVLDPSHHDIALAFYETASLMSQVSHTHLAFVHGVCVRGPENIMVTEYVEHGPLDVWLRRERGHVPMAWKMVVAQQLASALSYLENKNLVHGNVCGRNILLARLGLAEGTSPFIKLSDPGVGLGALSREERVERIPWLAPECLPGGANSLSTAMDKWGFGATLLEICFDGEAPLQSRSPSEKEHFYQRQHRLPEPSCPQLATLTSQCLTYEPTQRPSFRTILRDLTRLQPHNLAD
Chain of Tyk2 (P29597 whole entry, the tested form may be a part): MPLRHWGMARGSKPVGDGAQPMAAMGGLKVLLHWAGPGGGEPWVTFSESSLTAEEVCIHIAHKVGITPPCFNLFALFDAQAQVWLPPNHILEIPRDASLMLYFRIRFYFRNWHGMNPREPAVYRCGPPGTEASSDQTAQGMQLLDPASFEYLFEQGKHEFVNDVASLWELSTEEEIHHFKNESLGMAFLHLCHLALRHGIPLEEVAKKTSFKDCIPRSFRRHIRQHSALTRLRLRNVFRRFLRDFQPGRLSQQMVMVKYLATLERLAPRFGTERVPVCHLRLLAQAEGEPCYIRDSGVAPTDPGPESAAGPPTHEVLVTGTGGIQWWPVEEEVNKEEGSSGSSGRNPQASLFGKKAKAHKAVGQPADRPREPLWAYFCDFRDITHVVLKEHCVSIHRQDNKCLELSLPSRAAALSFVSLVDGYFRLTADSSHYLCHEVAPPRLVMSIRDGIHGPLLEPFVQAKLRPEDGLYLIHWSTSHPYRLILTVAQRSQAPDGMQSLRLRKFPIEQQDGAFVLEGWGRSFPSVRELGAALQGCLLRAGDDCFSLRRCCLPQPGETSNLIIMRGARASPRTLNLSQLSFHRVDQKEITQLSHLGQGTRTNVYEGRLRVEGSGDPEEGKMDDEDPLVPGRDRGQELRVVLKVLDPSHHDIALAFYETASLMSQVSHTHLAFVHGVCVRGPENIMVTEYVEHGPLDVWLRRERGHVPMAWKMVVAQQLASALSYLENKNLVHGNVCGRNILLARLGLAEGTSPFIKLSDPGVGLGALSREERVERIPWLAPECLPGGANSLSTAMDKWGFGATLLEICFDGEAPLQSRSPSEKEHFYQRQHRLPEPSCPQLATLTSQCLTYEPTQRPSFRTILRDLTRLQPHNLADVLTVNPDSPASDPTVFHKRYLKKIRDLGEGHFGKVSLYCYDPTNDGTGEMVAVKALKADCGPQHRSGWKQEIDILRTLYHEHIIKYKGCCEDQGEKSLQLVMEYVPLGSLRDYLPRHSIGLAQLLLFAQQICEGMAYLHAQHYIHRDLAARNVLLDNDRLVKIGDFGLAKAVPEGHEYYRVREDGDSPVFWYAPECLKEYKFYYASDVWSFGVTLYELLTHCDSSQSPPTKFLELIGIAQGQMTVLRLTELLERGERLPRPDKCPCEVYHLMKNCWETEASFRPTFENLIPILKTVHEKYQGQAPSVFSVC

For the compound `CC(=O)Nc1cc(Nc2cc(C)nc(C(C)(F)F)n2)c(-c2cccc(OC(F)F)n2)cn1` [Example 150, N-(4′-((2-(1,1-difluoroethyl)-6-methylpyrimidin-4-yl)amino)-6-(difluoromethoxy)-[2,3′-bipyridin]-6′-yl)acetamide], the IC50 in assay [1] (setting [3]) and in assay [2] (MSD) was not above 10 nM in each case.
In the case of `CCc1cc(Nc2cc(NC(C)=O)ncc2-c2ccc(COC)cn2)nc(C(C)(F)F)n1` [Example 846, N-(4′-((2-(1,1-difluoroethyl)-6-ethylpyrimidin-4-yl)amino)-5-(methoxymethyl)-[2,3′-bipyridin]-6′-yl)acetamide], the IC50 in assay [1] (setting [4]) and in assay [2] was not above 10 nM in each case.
As for `CC(=O)Nc1cc(Nc2cc(C)nc(C34COC(C3)C4)n2)c(-c2ccc3c(n2)OCC(C)(C)O3)cn1` [Example 563, N-(4-((2-(2-oxabicyclo[2.1.1]hexan-4-yl)-6-methylpyrimidin-4-yl)amino)-5-(2,2-dimethyl-2,3-dihydrO[1,4]dioxino[2,3-b]pyridin-6-yl)pyridin-2-yl)acetamide], the IC50 is not above 10 nM in assay [1] (setting [5]) and 10 to 100 nM in assay [2] (MSD).
In the same order, the values of `CC(=O)Nc1cc(Nc2cc(C)nc(C(C)(F)F)n2)c(OC[C@]23CO[C@](CF)(C2)C3)cn1` [Example 421, N-(4-((2-(1,1-difluoroethyl)-6-methylpyrimidin-4-yl)amino)-5-(((1r,4s)-1-(fluoromethyl)-2-oxabicyclo[2.1.1]hexan-4-yl)methoxy)pyridin-2-yl)acetamide] are not above 10 nM and 10 to 100 nM.
In the case of `COCCOc1cnc(NC(C)=O)cc1Nc1cc(C)nc(C(C)(F)CF)n1` (centres unmarked) [Example 81, N-(4-((2-(1,2-difluoropropan-2-y1)-6-methylpyrimidin-4-yl)amino)-5-(2-methoxyethoxy)pyridin-2-yl)acetamide], the half-inhibitory concentration (IC50) in assay [1] (setting [3]) was not above 10 nM; in assay [2] (MSD), 10 to 100 nM.
The like results for `CCOc1cnc(NC(C)=O)cc1Nc1ccnc(C(C)(C)F)n1` [Example 31, N-(5-ethoxy-4-((2-(2-fluoropropan-2-yl)pyrimidin-4-yl)amino)pyridin-2-yl)acetamide] were, in that order, not above 10 nM and 10 to 100 nM.
As for `CC(=O)Nc1cc(Nc2ccnc(C(C)(F)F)n2)c(-c2cnc(N3CCC4(COC4)C3)cn2)cn1` [Example 869, N-(5-(5-(2-oxa-6-azaspiro[3.4]octan-6-yl)pyrazin-2-yl)-4-((2-(1,1-difluoroethyl)pyrimidin-4-yl)amino)pyridin-2-yl)acetamide], the results for the IC50 in assay [1] (setting [4]) and in assay [2] were 10 to 100 nM and 100 to 1000 nM, respectively.
Regarding `CCC(COc1cnc(NC(C)=O)cc1Nc1cc(C)nc(C(C)(F)F)n1)OC` (centres unmarked) [Example 424, N-(4-((2-(1,1-difluoroethyl)-6-methylpyrimidin-4-yl)amino)-5-(2-methoxybutoxy)pyridin-2-yl)acetamide], the IC50 is not above 10 nM in assay [1] (setting [5]) and 10 to 100 nM in assay [2] (MSD).
As to `COc1cnc(-c2cnc(NC(C)=O)cc2Nc2cc(OC3CC3)nc(C(C)(F)F)n2)cn1` [Example 830, N-(4-((6-cyclopropoxy-2-(1,1-difluoroethyl)pyrimidin-4-yl)amino)-5-(5-methoxypyrazin-2-yl)pyridin-2-yl)acetamide], the IC50 in assay [1] (setting [4]) is not above 10 nM; in assay [2] it was 10 to 100 nM.
For the compound `CC(=O)Nc1cc(Nc2ccnc(C(C)(F)F)n2)c(-c2cnc(N3CC4(COC4)C3)cn2)cn1` [Example 888, N-(5-(5-(2-oxa-6-azaspiro[3.3]heptan-6-yl)pyrazin-2-yl)-4-((2-(1,1-difluoroethyl)pyrimidin-4-yl)amino)pyridin-2-yl)acetamide], the IC50 is not above 10 nM in assay [1] (setting [4]) and 100 to 1000 nM in assay [2].
Regarding `Cc1cc(Nc2cc(NC(N)=O)ncc2-c2ccn(C)n2)nc(C(C)(F)F)n1` [Example 288, 1-(4-((2-(1,1-difluoroethyl)-6-methylpyrimidin-4-yl)amino)-5-(1-methyl-1H-pyrazol-3-yl)pyridin-2-yl)urea], the IC50 in assay [1] (setting [3]) and in assay [2] (MSD) was not above 10 nM each time.
As to `CC(=O)Nc1cc(Nc2cc(C)nc(C(C)(F)F)n2)c(OCc2ccc3c(c2)OCO3)cn1` [Example 484, N-(5-(benzo[d][1,3]dioxol-5-ylmethoxy)-4-((2-(1,1-difluoroethyl)-6-methylpyrimidin-4-yl)amino)pyridin-2-yl)acetamide], the IC50 in assay [1] (setting [5]) was not above 10 nM; in assay [2] (MSD) it was 10 to 100 nM.
In the same order, the values of `CC(=O)Nc1cc(Nc2cc(C)nc(C(C)(F)F)n2)c(-c2ccc3nccn3n2)cn1` [Example 680, N-(4-((2-(1,1-difluoroethyl)-6-methylpyrimidin-4-yl)amino)-5-(imidazo[1,2-b]pyridazin-6-yl)pyridin-2-yl)acetamide] are not above 10 nM and 10 to 100 nM.
The like results for `CC(=O)Nc1cc(Nc2cccc(C(C)(F)F)n2)c(-c2ccc(C#N)cn2)cn1` [Example 525, N-(5-cyanO4′-((6-(1,1-difluoroethyl)pyridin-2-yl)amino)-[2,3′-bipyridin]-6′-yl)acetamide] were, in that order, not above 10 nM and 10 to 100 nM.
In the same order, the values of `CC(=O)Nc1cc(Nc2cc(C)nc(C(C)(F)F)n2)c(-c2ncc(Cl)cn2)cn1` [Example 669, N-(5-(5-chloropyrimidin-2-yl)-4-((2-(1,1-difluoroethyl)-6-methylpyrimidin-4-yl)amino)pyridin-2-yl)acetamide] are not above 10 nM and 10 to 100 nM.
As for `CC(=O)Nc1cc(Nc2cc(C)nc(C(C)(F)F)n2)c(OC[C@H]2CCC[C@@H](C)O2)cn1` (stereo in doubt) [Example 418, Cis-rac-N-(4-((2-(1,1-difluoroethyl)-6-methylpyrimidin-4-yl)amino)-5-(((2R,6R)-6-methyltetrahydro-2H-pyran-2-yl)methoxy)pyridin-2-yl)acetamide], the IC50 in assay [1] (setting [5]) and in assay [2] (MSD) was not above 10 nM each time.
Turning to `CO[C@@H](C)COc1cnc(NC(C)=O)cc1Nc1cc(OC2CC2)nc(C(C)(F)F)n1` [Example 299, (S)-N-(4-((6-cyclopropoxy-2-(1,1-difluoroethyl)pyrimidin-4-yl)amino)-5-(2-methoxypropoxy)pyridin-2-yl)acetamide], the IC50 in assay [1] (setting [3]) and in assay [2] (MSD) was not above 10 nM in each case.
As for `COCCOc1cnc(NC(C)=O)cc1Nc1nccc(C(C)(F)F)n1` [Example 75, N-(4-((4-(1,1-difluoroethyl)pyrimidin-2-yl)amino)-5-(2-methoxyethoxy)pyridin-2-yl)acetamide], the figures for the concentration for half-maximal inhibition (IC50) in assay [1] (setting [3]) and in assay [2] (MSD) were not above 10 nM and 100 to 1000 nM, respectively.
Regarding `CO[C@H]1C[C@@H](Oc2cnc(NC(C)=O)cc2Nc2cc(C(C)C)nc(C(C)(F)F)n2)C1` [Example 409, N-(4-((2-(1,1-difluoroethyl)-6-isopropylpyrimidin-4-yl)amino)-5-((1s,3s)-3-methoxycyclobutoxy)pyridin-2-yl)acetamide], the IC50 in assay [1] (setting [5]) is not above 10 nM; in assay [2] (MSD), 10 to 100 nM.
In the case of `CC(=O)Nc1cc(Nc2cc(C)nc(C(C)(F)F)n2)c(OCc2ncccc2C)cn1` [Example 471, N-(4-((2-(1,1-difluoroethyl)-6-methylpyrimidin-4-yl)amino)-5-((3-methylpyridin-2-yl)methoxy)pyridin-2-yl)acetamide], the IC50 in assay [1] (setting [5]) lay within 10 to 100 nM; in assay [2] (MSD) it was 100 to 1000 nM.
The like results for `CC(=O)Nc1cc(Nc2cc(C)nc(C(C)(F)F)n2)c(OCc2nccn2C)cn1` [Example 496, N-(4-((2-(1,1-difluoroethyl)-6-methylpyrimidin-4-yl)amino)-5-((1-methyl-1H-imidazol-2-yl)methoxy)pyridin-2-yl)acetamide] were, in that order, 10 to 100 nM and not below 1000 nM.
On to `CC(=O)Nc1cc(Nc2cc(C)nc(C(C)(F)F)n2)c(-c2csc(CN3CCN(C)CC3)n2)cn1` [Example 787, N-(4-((2-(1,1-difluoroethyl)-6-methylpyrimidin-4-yl)amino)-5-(2-((4-methylpiperazin-1-yl)methyl)thiazol-4-yl)pyridin-2-yl)acetamide], for which the IC50 in assay [1] (setting [4]) and in assay [2] was not above 10 nM throughout.
With `CCc1cc(COc2cnc(NC(C)=O)cc2Nc2cc(C)nc(C(C)(F)F)n2)on1` [Example 319, N-(4-((2-(1,1-difluoroethyl)-6-methylpyrimidin-4-yl)amino)-5-((3-ethylisoxazol-5-yl)methoxy)pyridin-2-yl)acetamide], the values for the IC50 in assay [1] (setting [3]) and in assay [2] (MSD) were not above 10 nM and 10 to 100 nM, respectively.
As for `CCn1ccc(-c2cnc(NC(C)=O)cc2Nc2cc(C)nc(C(C)(F)F)n2)n1` [Example 613, N-(4-((2-(1,1-difluoroethyl)-6-methylpyrimidin-4-yl)amino)-5-(1-ethyl-1H-pyrazol-3-yl)pyridin-2-yl)acetamide], the IC50 in assay [1] (setting [5]) and in assay [2] (MSD) was not above 10 nM throughout.
With `CC(=O)Nc1cc(Nc2cc(C)nc(C(C)(F)F)n2)c(OCC2CC(F)(F)C2)cn1` [Example 465, N-(5-((3,3-difluorocyclobutyl)methoxy)-4-((2-(1,1-difluoroethyl)-6-methylpyrimidin-4-yl)amino)pyridin-2-yl)acetamide], the IC50 in assay [1] (setting [5]) was not above 10 nM; in assay [2] (MSD), 10 to 100 nM.
Take `CC(=O)Nc1cc(Nc2ccnc(C(C)(F)F)n2)c(-c2nnc(N3CCN(C)CC3)s2)cn1` [Example 774, N-(4-((2-(1,1-difluoroethyl)pyrimidin-4-yl)amino)-5-(5-(4-methylpiperazin-1-yl)-1,3,4-thiadiazol-2-yl)pyridin-2-yl)acetamide]: the IC50 in assay [1] (setting [4]) and in assay [2] was not above 10 nM in each case.
With `COc1cnc(NC(C)=O)cc1Nc1cc(-c2ccncc2F)nc(C(C)(F)F)n1` [Example 373, N-(4-((2-(1,1-difluoroethyl)-6-(3-fluoropyridin-4-yl)pyrimidin-4-yl)amino)-5-methoxypyridin-2-yl)acetamide], the IC50 is not above 10 nM in assay [1] (setting [5]) and 10 to 100 nM in assay [2] (MSD).
Regarding `CCOc1cnc(NC(C)=O)cc1Nc1cc(C(C)C)nc(C(C)(F)F)n1` [Example 51, N-(4-((2-(1,1-difluoroethyl)-6-isopropylpyrimidin-4-yl)amino)-5-ethoxypyridin-2-yl)acetamide], the IC50 was not above 10 nM in assay [1] (setting [3]) and 10 to 100 nM in assay [2] (MSD).
